We go through four molecules from patent US6555139B2, “Preparation of micron-size pharmaceutical particles by microfluidization” (Wockhardt Europe Limited, priority 1999, dated 2003).

Data set [1] can be described thus: Particle size distribution (PSD) of suspensions before/after microfluidization (Mastersizer). To be noted: 5,000 psi, 3 passes. In kind it is physicochemical. From the text:
The Microfluidizer M-210 EH operates at higher pressures up to 35000 psi. The process stream enters the inlet reservoir. An air-powered intensifier pumping system accelerates the process stream, propelling into a processing zone called the interaction chamber. This chamber consists of microchannels, where the process stream separates into two. It changes direction and collides into a single stream again. […] Then product is accelerated to a high velocity and is subjected to shear, impact and cavitation. This causes particles and droplets to reduce in size as small as sub-micron depending upon the processing pressure and number of cycles applied. […] After completion of the microfluidization step, the sized particles in suspension pass through pipe 18 out of the system, with a heat exchanger 20 shown in a preferred system to enable on-line drying of the micro-suspension resulting from the microfluidization. The microfluidization process is most conveniently practiced with operating pressures between 2000 pounds per square inch (psi) and 20,000 psi to provide resulting particle sizes of the dimensions most appropriate for pharmaceutical dosing. The process will often progress with increasingly higher operating pressures in each subsequent pass, such as using from 2,000 to 6,000 psi in a first pass, 5,000 to 11,000 psi in a second pass, and from 9,000 to 20,000 psi in a third pass (if needed). Each pass will generally be higher than a previous pass, or operating pressures may remain constant or decrease, depending upon the specific results desired in the processing.

The conditions of data set [2]: cited from earlier work.
Where [3] appears, read: micronized drug + Klucel LF + micronized β-cyclodextrin + Cremophor RH-40 + water.
[4] abbreviates: micronized drug + Klucel LF + unmicronized β-cyclodextrin + Cremophor RH-40 + water.

Where two headings read alike, the source gives them in different places.

`CCc1cccc2c3c([nH]c12)C(CC)(CC(=O)O)OCC3` (stereo not drawn) [Etodolac, etodolac]: the “PSD of Output Material After Processing, d (0.9)” value in data set [1] (setting [3]) is given as 12.15 μm. The solubility is, setting by setting: (pH 1) 0.001%; (pH 5) 0.01%.

Consider `CCOC(=O)C1=C(C)NC(C)=C(C(=O)OC)C1c1cccc(Cl)c1Cl` (stereo not drawn) [Felodipine, felodipine], for which, in data set [2], the “absorption from the colon” value is “impaired absorption from the colon”.

With `Cc1cnc(C(=O)NCCc2ccc(S(=O)(=O)NC(=O)NC3CCCCC3)cc2)cn1` [Glipizide, glipizide], the “PSD of Output Material After Processing, d (0.5)” value in data set [1] (setting [3]) worked out at 5.72 μm; in data set [1] (setting [4]) it was 3.84 μm. The “PSD of Output Material After Processing, d (0.9)” value turned out to be 12.06 μm in data set [1] (setting [3]) and 7.52 μm in data set [1] (setting [4]).

Regarding `CCOC(=O)C1=C(C)NC(C)=C(C(=O)OC)C1c1cccc([N+](=O)[O-])c1` (stereo not drawn) [nitrendipine], the “absorption from the colon” value in data set [2] was “impaired absorption from the colon”.
